# Values quoted from earlier work, collected in patent US20060159736A1, “Liposome formulations of boronic acid compounds” (priority 2004, published 2006).
# Like-named read-outs stand apart in the source and are kept apart here.
# Assays:
# [1] = system: cancer tissues (breast, ovarian, prostate, lung) and tumors (pancreatic tumors, lymphomas, melanoma)
# [2] = system: human prostate cancer xenograft; details: human prostate xenograft models
# tumor lines = details: range of tumor lines
# [3] = given intravenously once or twice weekly; patients with solid tumors
# lung cancer xenograft = lung cancer xenograft models
# [4] = intravenous bolus on days 1, 4, 8, and 11 of a 3-week cycle
compound,measurement,setting,value
CC(C)C[C@H](NC(=O)[C@H](Cc1ccccc1)NC(=O)c1cnccn1)B(O)O [bortezomib],activity against cancer tissues and tumors,[1],activity against a variety of cancer tissues
same,antitumor activity,[2],had antitumor activity
same,cytotoxicity,tumor lines,showed cytotoxicity against a range of tumor lines
same,maximum tolerated dose,[3],1.3 mg/m^2
same,antitumor activity,lung cancer xenograft,had antitumor activity
same,maximum tolerated dose,[4],1.56 mg/m^2
